The text below walks through data of patent publication US8969565B2, “Imidazo[1,2-b]pyridazine-based compounds, compositions comprising them, and methods of their use” (Lexicon Pharmaceuticals, Inc., priority 2012, dated 2015).

Counter-ions that a name gives are not always drawn. Bounds are passed on as bounds.

The target of series [1] is T1, AAK1 (Homo sapiens, UniProt Q2M2I8).
T1 construct: HA; expressed in transfected cells; host or cells: HEK293F
The series can be described thus: HEK281 cell-based assay (phospho-mu2 Western blot in transfected HEK293F cells). The conditions noted are these: 3 hours incubation, read-out: CBA IC50. Summed up: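 After 3 hours at 37° C. with compound (five 3-fold-spaced concentrations, DMEM+0.5% FBS), transiently transfected HEK293F cells expressing full-length human AAK1 and Flag-tagged mu2 were lysed. mu2 phosphorylation was read by anti-phospho-mu2 immunoblot, normalized against total mu2 by anti-Flag blot.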
For orientation: Immunoblotting shows a protein as a band on a membrane.

Series [2] concerns the target T1, AAK1. Description: P81 filter plate assay. Format: biochemical. The note with it: full-length human AAK1, Mu2 substrate.

T1 sequence (Q2M2I8 1-863 isoform Q2M2I8-2): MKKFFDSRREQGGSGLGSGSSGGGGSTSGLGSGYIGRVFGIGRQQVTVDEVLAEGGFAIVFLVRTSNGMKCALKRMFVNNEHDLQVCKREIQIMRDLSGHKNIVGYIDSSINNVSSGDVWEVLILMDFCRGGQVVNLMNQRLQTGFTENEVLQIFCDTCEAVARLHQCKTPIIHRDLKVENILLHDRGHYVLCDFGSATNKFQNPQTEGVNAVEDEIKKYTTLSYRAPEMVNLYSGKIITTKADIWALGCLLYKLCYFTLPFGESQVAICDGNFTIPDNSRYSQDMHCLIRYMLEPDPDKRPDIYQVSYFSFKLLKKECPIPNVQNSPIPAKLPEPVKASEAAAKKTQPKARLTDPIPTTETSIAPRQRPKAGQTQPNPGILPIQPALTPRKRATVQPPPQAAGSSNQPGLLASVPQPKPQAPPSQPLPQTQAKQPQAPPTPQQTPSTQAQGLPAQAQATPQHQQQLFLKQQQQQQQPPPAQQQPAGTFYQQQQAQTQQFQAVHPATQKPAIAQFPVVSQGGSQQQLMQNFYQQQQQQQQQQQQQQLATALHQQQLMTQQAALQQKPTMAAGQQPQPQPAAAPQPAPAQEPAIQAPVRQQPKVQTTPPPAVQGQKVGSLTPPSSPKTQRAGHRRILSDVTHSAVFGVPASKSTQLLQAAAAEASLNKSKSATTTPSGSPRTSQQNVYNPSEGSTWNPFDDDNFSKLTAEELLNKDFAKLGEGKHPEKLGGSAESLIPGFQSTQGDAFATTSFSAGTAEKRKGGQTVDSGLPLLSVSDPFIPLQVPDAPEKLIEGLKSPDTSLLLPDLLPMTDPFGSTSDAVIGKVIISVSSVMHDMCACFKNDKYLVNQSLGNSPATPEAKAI

By melting point is commonly meant the temperature of the solid-liquid transition. On to `COc1cnccc1-c1cnc2ccc(N3CCN(C(=O)CC(C)(C)C)CC3)nn12` (as salt: hydrochloride) [Example 5.6.114, 1-(4-(3-(3-Methoxypyridin-4-yl)imidazo[1,2-b]pyridazin-6-yl)piperazin-1-yl)-3,3-dimethylbutan-1-one], for which the melting point was 211 to 212 °C (dec.).

On to `COc1ccccc1-c1cnc2ccc(N3CCN(C(=O)OC(C)C)CC3)nn12` (as salt: hydrochloride) [Example 5.6.115, 4-[3-(2-Methoxy-phenyl)-imidazo[1,2-b]pyridazin-6-yl]-piperazine-1-carboxylic acid isopropyl ester], for which the melting point is 243 to 244 °C (dec.).

With `CC(C)(C)C(=O)N1CCN(c2ccc3ncc(-c4ccccc4)n3n2)CC1` (as salt: hydrochloride) [Example 5.6.125, 2,2-Dimethyl-1-[4-(3-phenyl-imidazo[1,2-b]pyridazin-6-yl)-piperazin-1-yl]-propan-1-one], the melting point was 277 to 278 °C (dec.).

Turning to `CC(C)OC(=O)N1CCN(c2ccc3ncc(-c4ccccc4OC(C)C)n3n2)CC1` (as salt: hydrochloride) [Example 5.6.145, 4-[3-(2-Isopropoxy-phenyl)-imidazo[1,2-b]pyridazin-6-yl]-piperazine-1-carboxylic acid isopropyl ester], the melting point was 216 to 217 °C (dec.).

As to `COc1ncccc1-c1cnc2ccc(N3CCN(C(=O)OC(C)C)CC3)nn12` (as salt: hydrochloride) [Example 5.6.151, 4-[3-(2-Methoxy-pyridin-3-yl)-imidazo[1,2-b]pyridazin-6-yl]-piperazine-1-carboxylic acid isopropyl ester], the melting point was 179 to 181 °C (dec.).

`CC(C)(C)NC(=O)N1CCN(c2ccc3ncc(-c4ccccc4)n3n2)CC1` (as salt: hydrochloride) [N-(tert-Butyl)-4-(3-phenylimidazo[1,2-b]pyridazin-6-yl)piperazine-1-carboxamide]: the melting point is 210 to 211 °C (dec.).

With `CC(C)NC(=O)N1CCN(c2ccc3ncc(-c4ccccc4)n3n2)CC1` (as salt: hydrochloride) [N-Isopropyl-4-(3-phenylimidazo[1,2-b]pyridazin-6-yl)piperazine-1-carboxamide], the melting point is 217 to 218 °C (dec.).

For the compound `CC(C)SC(=O)N1CCN(c2ccc3ncc(-c4ccccc4)n3n2)CC1` (as salt: hydrochloride) [S-Isopropyl 4-(3-phenylimidazo[1,2-b]pyridazin-6-yl)piperazine-1-carbothioate], the melting point is 276 to 277 °C (dec.).

`O=C(N1CCCC1)N1CCN(c2ccc3ncc(-c4ccccn4)n3n2)CC1` (as salt: hydrochloride) [[4-(3-Pyridin-2-yl-imidazo[1,2-b]pyridazin-6-yl)-piperazin-1-yl]-pyrrolidin-1-yl-methanone] gave a melting point of 202 to 203 °C.

The compound `CC(C)OC(=O)N1CCN(c2ccc3ncc(Br)n3n2)C(C)C1` (racemic) [Example 5.6.146, Isopropyl 4-(3-bromoimidazo[1,2-b]pyridazin-6-yl)-3-methylpiperazine-1-carboxylate] registered a melting point of 52 to 54 °C.

As for `CC(C)OC(=O)N1CCN(c2ccc3ncc(Br)n3n2)CC1C` (racemic) [Example 5.6.147, Isopropyl 4-(3-bromoimidazo[1,2-b]pyridazin-6-yl)-2-methylpiperazine-1-carboxylate], the melting point was in the range of 144 to 145 °C.

The compound `COc1ccccc1-c1cnc2ccc(N3C[C@H]4C[C@@H]3CN4C(=O)OC(C)C)nn12` (stereo in doubt) (as salt: hydrochloride) [Example 5.6.154, Isopropyl 5-(3-(2-methoxyphenyl)imidazo[1,2-b]pyridazin-6-yl)-2,5-diazabicyclo[2.2.1]heptane-2-carboxylate] had a melting point of 173 to 174 °C.

One may read the IC50 as the concentration needed to halve the response being measured. The compound `CC(C)(C)NC(=O)N1CCN(c2ccc3ncc(Br)n3n2)CC1` [4-(3-Bromoimidazo[1,2-b]pyridazin-6-yl)-N-(tert-butyl)piperazine-1-carboxamide] returned a melting point of 199 to 200 °C. The IC50 at AAK1 [1] is at most 100 nM. On AAK1 [2], the IC50 is at most 10 nM.

As for `CC(C)(C)OC(=O)N1CCN(c2ccc3ncc(-c4ccccc4)n3n2)CC1` [4-(3-Phenyl-imidazo[1,2-b]pyridazin-6-yl)-piperazine-1-carboxylic acid tert-butyl ester], the melting point is 101 to 103 °C (dec.). Further, at AAK1 [1], the IC50 is at most 100 nM. The IC50 on AAK1 [2] is at most 10 nM.

In turn, `CCCCNc1ccc2ncc(-c3ccc(-c4nnn[nH]4)cc3)n2n1` [Butyl-{3-[4-(1H-tetrazol-5-yl)-phenyl]-imidazo[1,2-b]pyridazin-6-yl}-mine] returned a melting point of 270 to 271 °C. Further, the IC50 at AAK1 [1] is at most 1000 nM.

Regarding `CC(=O)c1ccc(-c2cnc3ccc(N(C)CCCNC(=O)OC(C)(C)C)nn23)s1` [Example 5.6.27, (3-{[3-(5-Acetyl-thiophen-2-yl)-imidazo[1,2-b]pyridazin-6-yl]-methyl-amino}-propyl)-carbamic acid tert-butyl ester], the melting point was in the range of 148 to 149 °C.

As to `CCCCNc1ccc2ncc(-c3ccc(-c4noc(=O)[nH]4)cc3)n2n1` [Example 5.6.49, 3-[4-(6-Butylamino-imidazo[1,2-b]pyridazin-3-yl)-phenyl]-4H-[1,2,4]oxadiazol-5-one], the melting point was 253 to 254 °C (dec.).

`CN(CCNc1ccc2ncc(Br)n2n1)C(=O)OC(C)(C)C` [Example 5.6.56, [2-(3-Bromo-imidazo[1,2-b]pyridazin-6-ylamino)-ethyl]-methyl-carbamic acid tert-butyl ester] came in with a melting point of 128 to 129 °C.

`CC(C)N(CCNc1ccc2ncc(Br)n2n1)C(=O)OC(C)(C)C` [Example 5.6.72, [2-(3-Bromo-imidazo[1,2-b]pyridazin-6-ylamino)-ethyl]-isopropyl-carbamic acid tert-butyl ester] showed a melting point of 154 to 155 °C.

In the case of `CC(C)OC(=O)N1CCN(c2ccc3ncc(Br)n3n2)CC1` [Example 5.6.102, 4-(3-Bromo-imidazo[1,2-b]pyridazin-6-yl)-piperazine-1-carboxylic acid isopropyl ester], the melting point was 123 to 124 °C.

Turning to `CC(C)(C)OC(=O)N1CCC[C@H]1CNc1ccc2ncc(I)n2n1` [Example 5.6.107, (S)-2-[(3-Iodo-imidazo[1,2-b]pyridazin-6-ylamino)-methyl]-pyrrolidine-1-carboxylic acid tert-butyl ester], the melting point was in the range of 138 to 139 °C.

Compound `COc1cnccc1-c1cnc2ccc(N3CCCN(C(=O)OC(C)(C)C)CC3)nn12` [Example 5.6.121, 4-[3-(3-Methoxy-pyridin-4-yl)-imidazo[1,2-b]pyridazin-6-yl]-[1,4]diazepane-1-carboxylic acid tert-butyl ester] showed a melting point of 115 to 116 °C.

`CCCCN(C)c1ccc2ncc(-c3ccc(CN)cc3)n2n1` [[3-(4-Aminomethyl-phenyl)-imidazo[1,2-b]pyridazin-6-yl]-butyl-methyl-amine]: the melting point was in the range of 99 to 101 °C. Besides, the IC50 on AAK1 [1] is at most 1000 nM.
